Experimental data taken from PubChem BioAssay (NCI).
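Each compound was tested at five concentrations against cells in 96-well plates for 48 hours. At the TGI there is no net growth.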

Tests used:
Assay in all cases: inhibition of tumour cell growth, NCI panel, 48 h
CAKI-1 renal = system: CAKI-1 renal
SN12C renal = system: SN12C renal
OVCAR-4 ovarian = system: OVCAR-4 ovarian
LOX IMVI melanoma = system: LOX IMVI melanoma
HOP-92 NSCLC = system: HOP-92 NSCLC
U251 CNS = system: U251 CNS
UACC-257 melanoma = system: UACC-257 melanoma
HT29 colon = system: HT29 colon
NCI-H226 lung = system: NCI-H226 lung
SW-620 colon = system: SW-620 colon
HOP-62 NSCLC = system: HOP-62 NSCLC
SF-295 CNS = system: SF-295 CNS
HCT-116 colon = system: HCT-116 colon
SR leukemia = system: SR leukemia
MDA-MB-435 = system: MDA-MB-435
MOLT-4 leukemia = system: MOLT-4 leukemia
RXF 393 renal = system: RXF 393 renal
NCI-H522 lung = system: NCI-H522 lung
HCT-15 colon = system: HCT-15 colon
MCF7 breast = system: MCF7 breast
KM12 colon = system: KM12 colon
786-0 renal = system: 786-0 renal
PC-3 prostate = system: PC-3 prostate
OVCAR-8 ovarian = system: OVCAR-8 ovarian
NCI-H460 lung = system: NCI-H460 lung
COLO 205 colon = system: COLO 205 colon
SNB-19 CNS = system: SNB-19 CNS
SNB-75 CNS = system: SNB-75 CNS
ACHN renal = system: ACHN renal
OVCAR-5 ovarian = system: OVCAR-5 ovarian
DU-145 prostate = system: DU-145 prostate
MALME-3M melanoma = system: MALME-3M melanoma
NCI-H23 lung = system: NCI-H23 lung
IGROV1 ovarian = system: IGROV1 ovarian
SK-OV-3 ovarian = system: SK-OV-3 ovarian
K-562 leukemia = system: K-562 leukemia
HCC-2998 colon = system: HCC-2998 colon
HL-60(TB) leukemia = system: HL-60(TB) leukemia
HS 578T breast = system: HS 578T breast
SK-MEL-28 melanoma = system: SK-MEL-28 melanoma
UO-31 renal = system: UO-31 renal
SF-268 CNS = system: SF-268 CNS
EKVX NSCLC = system: EKVX NSCLC
T-47D breast = system: T-47D breast
SK-MEL-5 melanoma = system: SK-MEL-5 melanoma
A498 renal = system: A498 renal
M14 melanoma = system: M14 melanoma
SK-MEL-2 melanoma = system: SK-MEL-2 melanoma
TK-10 renal = system: TK-10 renal
CCRF-CEM leukemia = system: CCRF-CEM leukemia
UACC-62 melanoma = system: UACC-62 melanoma
OVCAR-3 ovarian = system: OVCAR-3 ovarian
NCI/ADR-RES ovarian = system: NCI/ADR-RES ovarian
MDA-MB-231 breast = system: MDA-MB-231 breast
SF-539 CNS = system: SF-539 CNS
RPMI-8226 leukemia = system: RPMI-8226 leukemia
BT-549 breast = system: BT-549 breast
A549 NSCLC = system: A549 NSCLC
MDA-N = system: MDA-N

**Q.** What does the source list for OC1c2c(ccc3c2CCC3)CC12Cc1ccccc1C2 (centres undefined)?
**A.** TGI (CAKI-1 renal): 33.4 µM; TGI (SN12C renal): 28.8 µM; TGI (OVCAR-4 ovarian): 38.3 µM; TGI (LOX IMVI melanoma): 29.4 µM; TGI (HOP-92 NSCLC): 25.8 µM; TGI (U251 CNS): 29.7 µM; TGI (UACC-257 melanoma): 27.4 µM; TGI (HT29 colon): 31.3 µM; TGI (NCI-H226 lung): 26.6 µM; TGI (SW-620 colon): 32.8 µM; TGI (HOP-62 NSCLC): 30.1 µM; TGI (SF-295 CNS): 31.9 µM; TGI (HCT-116 colon): 29.7 µM; TGI (SR leukemia): 44.6 µM; TGI (MDA-MB-435): 29.5 µM; TGI (MOLT-4 leukemia): > 100 µM; TGI (RXF 393 renal): 27.2 µM; TGI (NCI-H522 lung): 30.3 µM; TGI (HCT-15 colon): 30.2 µM; TGI (MCF7 breast): 32.8 µM; TGI (KM12 colon): 29.7 µM; TGI (786-0 renal): 30.9 µM; TGI (PC-3 prostate): 30.3 µM; TGI (OVCAR-8 ovarian): 33.7 µM; TGI (NCI-H460 lung): 33 µM; TGI (COLO 205 colon): 31.9 µM; TGI (SNB-19 CNS): 32.9 µM; TGI (SNB-75 CNS): 35.6 µM; TGI (ACHN renal): 32.7 µM; TGI (OVCAR-5 ovarian): 31.3 µM; TGI (DU-145 prostate): 31.2 µM; TGI (MALME-3M melanoma): 25.2 µM; TGI (NCI-H23 lung): 30.9 µM; TGI (IGROV1 ovarian): 47.5 µM; TGI (SK-OV-3 ovarian): 32.9 µM; TGI (K-562 leukemia): 54.9 µM; TGI (HCC-2998 colon): 27.5 µM; TGI (HL-60(TB) leukemia): 44.7 µM; TGI (HS 578T breast): 35.5 µM; TGI (SK-MEL-28 melanoma): 30.5 µM; TGI (UO-31 renal): 27.4 µM; TGI (SF-268 CNS): 29.4 µM; TGI (EKVX NSCLC): 31.4 µM; TGI (T-47D breast): 53.5 µM; TGI (SK-MEL-5 melanoma): 29.3 µM; TGI (A498 renal): 30.2 µM; TGI (M14 melanoma): 28.8 µM; TGI (SK-MEL-2 melanoma): 28.8 µM; TGI (TK-10 renal): 28 µM; TGI (CCRF-CEM leukemia): 83.1 µM; TGI (UACC-62 melanoma): 29.4 µM; TGI (OVCAR-3 ovarian): 26.5 µM; TGI (NCI/ADR-RES ovarian): 35.4 µM; TGI (MDA-MB-231 breast): 29.4 µM; TGI (SF-539 CNS): 35.8 µM; TGI (RPMI-8226 leukemia): 50.8 µM; TGI (BT-549 breast): 31.6 µM; TGI (A549 NSCLC): 34.5 µM; TGI (MDA-N): 28.8 µM
